# According to BindingDB's records for doi:10.1016/s0960-894x(01)00246-3 (Rohm and Haas, 2001):
# Biological target: Tubulin alpha/beta (Bos taurus)
# Test: Inhibition of Bos taurus (bovine) brain tubulin polymerization
row,SMILES,EC50 [µM]
1,"COc1cccc([C@@H]2CC=CC[C@H]2[N+](=O)[O-])c1 [1-Methoxy-3-((1S,6R)-6-nitro-cyclohex-3-enyl)-benzene]",> 100
2,"COc1ccc(-c2ccccc2C#N)c(OC)c1OC [2',3',4'-Trimethoxy-biphenyl-2-carbonitrile]",50
3,"COc1ccc(-c2ccc(OC)c(OC)c2OC)c(C)c1 [2,3,4,4'-Tetramethoxy-2'-methyl-biphenyl]",6.25
4,"COc1ccc(-c2ccc(OC)c(OC)c2OC)c([N+](=O)[O-])c1 [2,3,4,4'-Tetramethoxy-2'-nitro-biphenyl]",6.25
5,"COc1ccc(-c2ccc(OC)c(OC)c2OC)cc1 [2,3,4,4'-Tetramethoxy-biphenyl]",6.25
6,"COc1ccc(-c2ccccc2[N+](=O)[O-])c(OC)c1OC [2,3,4-Trimethoxy-2'-nitro-biphenyl]",> 100
7,"COc1ccc(-c2ccc(OC)c(OC)c2OC)c(C#N)c1 [4,2',3',4'-Tetramethoxy-biphenyl-2-carbonitrile]",6.25
8,"COc1ccc(C2CC=CCC2C#N)c(OC)c1OC (centres undefined) [6-(2,3,4-Trimethoxy-phenyl)-cyclohex-3-enecarbonitrile]",> 100
9,"O=[N+]([O-])[C@@H]1CC=CC[C@H]1c1ccccc1 [((1S,6R)-6-Nitro-cyclohex-3-enyl)-benzene]",> 100
